The results in this text go back to ChEMBL document CHEMBL1127904, “D-amino acids as novel P2/P3 ligands for inhibitors of HIV-1 protease” (Bioorg Med Chem Lett, 1994).

One may read the IC50 as the concentration needed to halve the response being measured. Read a high IC50 as lower potency.

Assay [1] has as its target Human immunodeficiency virus type 1 protease (Human immunodeficiency virus 1, UniProt Q72874). Kind of assay: Concentration required for in vitro inhibitory activity against HIV-1 protease.
A further assay has as its system MT2. Kind of assay: Concentration required for in vitro antiviral activity against HIV-1 virus infected MT2 cells. The format is functional, cell-based. To be noted: Homo sapiens.
The test system of the next assay is CCRF-CEM. Kind of assay: Concentration required for in vitro antiviral activity against HIV-1 virus infected CEM cells. The format is functional, cell-based. The following applies: Homo sapiens.

Take `CC(=O)N[C@@H](CC(=O)OCc1ccccc1)C(=O)N[C@@H](Cc1ccccc1)[C@H](O)Cc1ccccc1C(=O)NC(C)(C)C`: in assay [1], half-maximal inhibition (IC50) required 85 nM.

The compound `CC(=O)N[C@H](CC(=O)OCc1ccccc1)C(=O)N[C@@H](Cc1ccccc1)[C@H](O)Cc1ccccc1C(=O)NC(C)(C)C` came in with an IC50 in assay [1] of over 1000 nM.

Turning to `CC(C)(C)NC(=O)c1ccccc1C[C@@H](O)[C@H](Cc1ccccc1)NC(=O)[C@H](CC(=O)OCc1ccccc1)NC(N)=O`, the IC50 came out at 11900 nM in the assay with MT2, 51 nM in assay [1] and 22400 nM in the assay on CCRF-CEM.

Turning to `CC(=O)N[C@@H](CS(=O)(=O)c1ccc2ccccc2n1)C(=O)N[C@@H](Cc1ccccc1)[C@H](O)Cc1ccccc1C(=O)NC(C)(C)C`, the IC50 with MT2 worked out at 180 nM; in assay [1], 0.3 nM; in the assay with CCRF-CEM it was 53 nM.

On to `CC(=O)N[C@@H](CSCc1ccccc1)C(=O)N[C@@H](Cc1ccccc1)[C@H](O)Cc1ccccc1C(=O)NC(C)(C)C`, for which the figures for the half-inhibitory concentration (IC50) (in the assay with MT2; in assay [1]; in the assay with CCRF-CEM) were 3120 nM, 45 nM and 2910 nM, respectively.

Turning to `CC(=O)N[C@H](CS(=O)(=O)c1ccc2ccccc2c1)C(=O)N[C@@H](Cc1ccccc1)[C@H](O)Cc1ccccc1C(=O)NC(C)(C)C`, the IC50 in the assay with MT2 worked out at 31 nM; in assay [1] it was 0.3 nM; in the assay with CCRF-CEM it was 11 nM.

Turning to `CC(C)(C)NC(=O)c1ccccc1C[C@@H](O)[C@H](Cc1ccccc1)NC(=O)[C@@H](CC(=O)OCc1ccccc1)NS(C)(=O)=O`, the IC50 in assay [1] is over 1000 nM.

For `CC(=O)N[C@H](CSCc1ccccc1)C(=O)N[C@@H](Cc1ccccc1)[C@H](O)Cc1ccccc1C(=O)NC(C)(C)C`, the half-inhibitory concentration (IC50) in assay [1] was over 1000 nM.

`CC(C)(C)NC(=O)c1ccccc1C[C@@H](O)[C@H](Cc1ccccc1)NC(=O)[C@H](CC(=O)NCc1ccc2ccccc2n1)NS(C)(=O)=O`: the half-inhibitory concentration (IC50) in the assay on MT2 came to 1440 nM; in assay [1], 8 nM; with CCRF-CEM, 580 nM.

Regarding `CC(=O)N[C@@H](CSc1ccc2ccccc2c1)C(=O)N[C@@H](Cc1ccccc1)[C@H](O)Cc1ccccc1C(=O)NC(C)(C)C`, the half-inhibitory concentration (IC50) is 1000 nM with MT2, 42 nM in assay [1] and 1130 nM in the assay with CCRF-CEM.

With `CC(C)(C)NC(=O)c1ccccc1C[C@@H](O)[C@H](Cc1ccccc1)NC(=O)[C@H](CC(=O)OCc1ccccc1)NS(C)(=O)=O`, the IC50 in the assay with MT2 worked out at 1270 nM; in assay [1], 5.4 nM; in the assay with CCRF-CEM it was 1090 nM.

Compound `CC(C)(C)NC(=O)c1ccccc1C[C@@H](O)[C@H](Cc1ccccc1)NC(=O)C(CC(N)=O)NC(=O)c1ccc2ccccc2n1` (single isomer, unassigned) had an IC50 in the assay with CCRF-CEM of 23 nM.
